Data reported in patent US20100093642A1, “NOVEL POLYPEPTIDES” (priority 2006, published 2010).
≈ marks a conversion by molar mass, not a printed value. Like-named read-outs stand apart in the source and are kept apart here. Residues, ends and D or L forms follow the SMILES beside them. No end group written: not given here.

Legend:
[1] = tested on: murine colon carcinoma cell line CT26; type: cell-based; details: 4 h
Procedure: The cytotoxic effects of the peptides on different human tumour cells were measured using the MTT colorimetric assay (Mosmann, 1983). MIT (3-(4-5-dimethylthiazol-2-yl)-2,5-diphenyl tetrazolium bromide) is a soluble tetrazolium salt yielding a yellow solution when prepared in media or salt solutions lacking phenol red. Dissolved MIT is converted to an insoluble purple formazan by cleavage of the tetrazolium ring by dehydrogenase enzymes. This water insoluble formazan can be solubilized using isopropanol or other solvents and the dissolved material is measured spectrophotometrically. The absorbance was measured as a function of concentration of converted dye. The conversion of the soluble dye to the insoluble purple formazan is utilized in assays for measurement of cell proliferation. […] We used this assay to measure the degree of cell death caused by the peptides.
CT26 and A20 were maintained in RPMI-1640 medium supplemented with 10% heat inactivated FBS and 1% L-glutamine in a humidified atmosphere of 5% CO2 at 37° C. The human embryonic fibroblast cell line, MRC-5, was cultured as a monolayer in MEM medium, under the same conditions as described for the tumour cell lines. CT26 and MRC-5 cells to be used in the assay were grown to a minimum of 75% confluency, trypsinated and split to single cell suspension, counted and centrifuged at 1500 rpm for 7 min. The cell pellet was resuspended to a concentration of 1-2×10^5 cells/ml in RPMI-1640 medium without FBS and L-glutamine-L-alanine (assay-medium). The A20 cells were grown in suspension and adjusted to a concentration of 6×10^5 cells/ml in assay medium. All cell lines were routinely tested for mycoplasma infection using a PCR-based mycoplasma detection kit (MycoSensor PCR Assay Kit, Stratagene), following the supplier's instructions. All cell lines were mycoplasma free.
The cytotoxicity was measured using the MTT method (Mosmann, 1983), with minor modifications. The adherent cells (CT26 and MRC-5) were applied in 96-well culture plates in a volume of 100 μl assay medium and incubated at 37° C. for 24 hours. The A20 cells were applied to the microtiter plates just prior to testing. The medium was removed and the cells were treated with 100 μl of peptide solution (concentrations ranging from 0 to 400 μg/ml), diluted in serum-free medium, and the plates were incubated at 37° C. for 4 hours. Cells treated with Triton X-100 (1%) were used as positive control (100% killing) whereas cells plus medium only were used as negative control. Following the incubation period, 10 and 20 μl MTT (5 mg/ml, dissolved in PBS) were added to each well in the adherent cells (CT26 and MRC-5) and the A20 cells, respectively. After further incubation for 2 hours, a volume of 70 μl of the supernatant was removed and 100 μl acid alcohol (0.04 M HCl in isopropanol) added to each well in the adherent cell lines. For the cells grown in suspension (A20), a volume of 130 μl of the supernatant was removed and 100 μl acid alcohol was added. The plates were placed on a shaker for 1 hour at room temperature and read spectrophotometrically at 590 nm in a microtiter plate reader (Thermomax Molecular devices, New Jersey, USA). Cell survival (%, averaging at least 2 parallels) and IC50 values were estimated as described above.

Botrytis cinerea 101 = details: 48 h
Outline: (§1)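 Broth microdilution in half-strength potato dextrose broth, final 2×10^5 spores per ml, peptides in two-fold dilutions from 50 μM to 0.1 μM final. Incubated in the dark without shaking at 25° C. (37° C. for C. albicans) for 48 h; MIC is lowest concentration giving 50% inhibition of visible growth, scored microscopically.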

Saccharomyces cerevisiae = details: 48 h
Outline: as §1

[2] = tested on: Candida albicans (ATCC 10231)
Outline: as §1

Pseudomonas aeruginosa = type: cell-based
Outline: (§2)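 Peptide fractions were incubated with actively growing bacteria in Mueller Hinton medium at a starting concentration of 3×10^4 cells per ml. Growth was monitored continuously in a Bioscreen C reader; polymyxin B served as reference.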

Fusarium sp. = assay: Antifungal MIC; type: cell-based; details: filamentous fungi; more than 50% inhibition of visible growth, 48 h
Procedure: (§3) The various derivates of P17 (brominated and non-brominated) were tested for their ability to inhibit fungal growth of the yeast strains Saccaharomyces cerevisiae sp, Candida albicans (ATCC 10231) and Rodotorula sp., and the filamentous strains Botrytis cinerea 101, Penicillium rogveforti, and Fusarium sp. All strains, except C. albicans, were a gift from Prof. A. Tronsmo (The Norwegian University of Life Sciences, Ås, Norway). The fungi were cultivated on potato dextrose agar, supplemented with 2% glucose, at room temperature. Before antifungal testing, the fungi were dissolved in potato dextrose broth (Difco) at half-strength. Cell concentration was determined and adjusted after counting in a Bürker chamber. The filamentous fungi were filtered through a piece of cotton before counting. An aliquot of 50 μl of fungal spores (final concentration 2×10^5 spores per ml) were inoculated in microtiter plates (96 wells) along with 50 μl peptide solution. Peptides, dissolved in distilled water, were tested at final concentrations (two-fold dilutions) ranging from 50 μM to 0.1 μM. Cultures were grown in the dark (without shaking) and with a moist chamber at 25° C. (37° C. for C. albicans). Growth inhibition was determined microscopically after 48 h of incubation. MIC was determined as the lowest concentration of peptide resulting in 50% inhibition of visible growth.

Penicillum rogveforti = assay: Antifungal MIC; type: cell-based; details: filamentous fungi; more than 50% inhibition of visible growth, 48 h
Procedure: as §3

E. coli (ATCC 25922) = type: cell-based, Escherichia coli
Outline: as §2

S. aureus (ATCC 9144) = type: cell-based, Staphylococcus aureus
Outline: as §2

[3] = yeast, more than 50% inhibition of visible growth
[4] = yeast, more than 50% inhibition of visible growth, 48 h, 37° C.

`CC[C@H](C)[C@H](NC(=O)CNC(=O)[C@H](CO)NC(=O)[C@H](CCCCN)NC(=O)[C@@H](NC(=O)[C@H](C)NC(=O)[C@H](Cc1c[nH]cn1)NC(=O)[C@H](CO)NC(=O)[C@@H](NC(=O)[C@H](CCCCN)NC(=O)[C@H](Cc1c[nH]cn1)NC(=O)[C@H](Cc1ccccc1)NC(=O)[C@@H](NC(=O)[C@H](CCCCN)NC(=O)[C@H](CCCCN)NC(=O)[C@H](Cc1ccccc1)NC(=O)C(Cc1c[nH]c2ccc(Br)cc12)NC(=O)CN)[C@@H](C)O)C(C)C)C(C)C)C(=O)N[C@@H](Cc1c[nH]cn1)C(=O)N[C@@H](C)C(=O)NCC(=O)N[C@@H](CCC(N)=O)C(=O)N[C@@H](CCCNC(=N)N)C(=O)NCC(=O)N[C@@H](CS)C(=O)N[C@@H](CO)C(=O)N[C@@H](C)C(=O)N[C@@H](CC(C)C)C(=O)NCC(=O)N[C@@H](Cc1ccccc1)C(=O)O` (stereo partly shown) [P17 HC-Br] (HELM PEPTIDE1{G.[O=C(C(Cc1c[nH]c2ccc(Br)cc12)N[*:1])[*:2]].F.K.K.T.F.H.K.V.S.H.A.V.K.S.G.I.H.A.G.Q.R.G.C.S.A.L.G.F}$$$$V2.0) was tested, and the IC50 [1] was 33.1 µM, the “Minimal inhibitory concentration (MIC), Botrytis cinerea” value (Botrytis cinerea 101) was 25 µM (≈ 83 µg/mL) and the “Minimal inhibitory concentration (MIC), Saccharomyces cerevisiae” value (Saccharomyces cerevisiae; [3]) was 6.25 µM (≈ 20.8 µg/mL). The “Minimal inhibitory concentration (MIC), Candida albicans” value [2, 4] was 6.25 µM (≈ 20.8 µg/mL), the “Minimal inhibitory concentration, P. aeruginosa” value (Pseudomonas aeruginosa) was 3.12 µM (≈ 10.4 µg/mL) and the “Minimal inhibitory concentration (MIC), Fusarium sp.” value (Fusarium sp.) was 1.56 µM (≈ 5.18 µg/mL). The “Minimal inhibitory concentration (MIC), Penicillum rogveforti” value (Penicillum rogveforti) was 6.25 µM (≈ 20.8 µg/mL), the “Minimal inhibitory concentration, E. coli” value (E. coli (ATCC 25922)) was 1.56 µM (≈ 5.18 µg/mL) and the “Minimal inhibitory concentration, S. aureus” value (S. aureus (ATCC 9144); 37° C.) was 6.25 µM (≈ 20.8 µg/mL). For the same compound, the “Minimal inhibitory concentration, S. aureus” value (S. aureus (ATCC 9144); ATCC 9144) was 1.56 µM (≈ 5.18 µg/mL).
With `CC[C@H](C)[C@H](NC(=O)CNC(=O)[C@H](CO)NC(=O)[C@H](CCCCN)NC(=O)[C@@H](NC(=O)[C@H](C)NC(=O)[C@H](Cc1c[nH]cn1)NC(=O)[C@H](CO)NC(=O)[C@@H](NC(=O)[C@H](CCCCN)NC(=O)[C@H](Cc1c[nH]cn1)NC(=O)[C@H](Cc1ccccc1)NC(=O)[C@@H](NC(=O)[C@H](CCCCN)NC(=O)[C@H](CCCCN)NC(=O)[C@H](Cc1ccccc1)NC(=O)C(Cc1c[nH]c2ccc(Br)cc12)NC(=O)CN)[C@@H](C)O)C(C)C)C(C)C)C(=O)N[C@@H](Cc1c[nH]cn1)C(=O)N[C@@H](C)C(=O)O` (stereo partly shown) [P17 HC-Br (1-20)] (HELM PEPTIDE1{G.[O=C(C(Cc1c[nH]c2ccc(Br)cc12)N[*:1])[*:2]].F.K.K.T.F.H.K.V.S.H.A.V.K.S.G.I.H.A}$$$$V2.0; N-terminus and C-terminus assumed) the IC50 [1] was 59.7 µM, the “Minimal inhibitory concentration (MIC), Botrytis cinerea” value (Botrytis cinerea 101) was 50 µM (≈ 117 µg/mL) and the “Minimal inhibitory concentration (MIC), Saccharomyces cerevisiae” value (Saccharomyces cerevisiae) was 12.5 µM (≈ 29.3 µg/mL). For the same compound, the “Minimal inhibitory concentration (MIC), Candida albicans” value ([2]; ATCC 10231, 48 h) was 6.25 µM (≈ 14.7 µg/mL), the “Minimal inhibitory concentration, P. aeruginosa” value (Pseudomonas aeruginosa) was 6.25 µM (≈ 14.7 µg/mL) and the “Minimal inhibitory concentration, E. coli” value (E. coli (ATCC 25922)) was 6.25 µM (≈ 14.7 µg/mL). The “Minimal inhibitory concentration, S. aureus” value (S. aureus (ATCC 9144); ATCC 9144) was 100 µM (≈ 234 µg/mL).
GWFKKTFHKVSHAVKSGIHA [P17 HC (1-20)] was tested, and the “Minimal inhibitory concentration (MIC), Botrytis cinerea” value (Botrytis cinerea 101) was 100 µM, the “Minimal inhibitory concentration (MIC), Saccharomyces cerevisiae” value (Saccharomyces cerevisiae) was 12.5 µM and the “Minimal inhibitory concentration (MIC), Candida albicans” value ([2]; ATCC 10231, 48 h) was 6.25 µM. The “Minimal inhibitory concentration, P. aeruginosa” value (Pseudomonas aeruginosa) was 6.25 µM, the “Minimal inhibitory concentration, E. coli” value (E. coli (ATCC 25922)) was 6.25 µM and the “Minimal inhibitory concentration, S. aureus” value (S. aureus (ATCC 9144); ATCC 9144) was 100 µM.
For GWFKKTFHKVSHAVKSGIHAGQRGCSALGF [P17 HC], the IC50 [1] was 20.4 µM, the “Minimal inhibitory concentration (MIC), Botrytis cinerea” value (Botrytis cinerea 101) was 50 µM and the “Minimal inhibitory concentration (MIC), Saccharomyces cerevisiae” value (Saccharomyces cerevisiae; [3]) was 6.25 µM. For the same compound, the “Minimal inhibitory concentration (MIC), Candida albicans” value [2, 4] was 6.25 µM, the “Minimal inhibitory concentration, P. aeruginosa” value (Pseudomonas aeruginosa) was 3.12 µM and the “Minimal inhibitory concentration (MIC), Fusarium sp.” value (Fusarium sp.) was 1.56 µM. For the same compound, the “Minimal inhibitory concentration (MIC), Penicillum rogveforti” value (Penicillum rogveforti) was 6.25 µM and the “Minimal inhibitory concentration, E. coli” value (E. coli (ATCC 25922)) was 1.56 µM.
